These results are taken from patent US20090098139A1, “Combination therapy for the treatment of neovascular disorders” (priority 2006, published 2009).

In series [1] the test system is animal counterpart of isoform 121. Nature of the series: preclinical binding to VEGF isoform 121 counterpart. The settings on record: preclinical in vitro and animal studies.
For series [2], the system named is normal vessels of the retina. Briefly: animal study, direct comparison with a VEGF inhibitor that blocks all isoforms: normal retinal vessels. The class given is in vivo. The settings on record: the pan-VEGF isoform inhibitor comparator altered their growth and survival.
In series [3] the test system is animal counterpart of isoform 165. Nature of the series: preclinical animal studies: abnormal blood vessel growth in the retina. The class given is in vivo. The settings on record: binding to animal counterpart of VEGF isoform 165.

As for pegaptanib sodium [Macugen], in series [1], the “binding with the animal counterpart of isoform 121” value is “did not bind with the animal counterpart of isoform 121 to any significant degree”. Further, the “effect on the normal vessels of the retina” value in series [2] is recorded as “did not affect the normal vessels of the retina”. Further, the “inhibition of abnormal blood vessel growth in the retina” value in series [3] is listed as “highly effective in inhibiting abnormal blood vessel growth in the retina”.
